Legend:
[1] = target: Phosphodiesterase 4 (Homo sapiens) (UniProt P27815+Q08499+Q07343+Q08493); experiment: Inhibition of human PDE4 at 3 uM by radioligand binding assay; format: protein assay
[2] = target: Adenosine receptor A1 (Homo sapiens) (UniProt P30542); experiment: Inhibition of human adenosine A1 receptor at 3 uM by radioligand binding assay
[3] = target: Adenosine receptor A3 (Homo sapiens) (UniProt P0DMS8); experiment: Inhibition of human adenosine A3 receptor at 3 uM by radioligand binding assay
[4] = target: Adrenergic receptor alpha-1 (Rattus norvegicus) (UniProt P15823+P23944+P43140); experiment: Inhibition of rat alpha1 adrenergic receptor at 3 uM by radioligand binding assay
[5] = target: Alpha-2A adrenergic receptor (Homo sapiens) (UniProt P08913); experiment: Inhibition of human alpha2A adrenergic receptor at 3 uM by radioligand binding assay
[6] = target: Beta-2 adrenergic receptor (Homo sapiens) (UniProt P07550); experiment: Inhibition of human beta2 adrenergic receptor at 3 uM by radioligand binding assay
[7] = target: Endothelin-1 receptor (Homo sapiens) (UniProt P25101); experiment: Inhibition of human ETA receptor at 3 uM by radioligand binding assay
[8] = target: Neuropeptide Y receptor type 1 (Homo sapiens) (UniProt P25929); experiment: Inhibition of human neuropeptide YY1 receptor at 3 uM by radioligand binding assay
Rattus norvegicus [9] = species: Rattus norvegicus; experiment: Displacement of [125I]alpha-bungarotoxin from rat nicotinic acetylcholine receptor at 3 uM by radioligand binding assay
[10] = target: Neuronal acetylcholine receptor subunit alpha-7 (Rattus norvegicus) (UniProt Q05941); experiment: Inhibition of rat nAChR alpha7 at 3 uM by methyllycaconitine binding assay
Oryctolagus cuniculus = species: Oryctolagus cuniculus; experiment: Inhibition of rabbit purinergic P2X receptor at 3 uM by radioligand binding assay
[11] = target: 5-hydroxytryptamine receptor 2B (Homo sapiens) (UniProt P41595); experiment: Inhibition of human 5-HT2B receptor at 3 uM by radioligand binding assay
[12] = target: Sigma non-opioid intracellular receptor 1 (Homo sapiens) (UniProt Q99720); experiment: Inhibition of human sigma1 receptor at 3 uM by radioligand binding assay
[13] = target: Somatostatin receptor type 4 (Homo sapiens) (UniProt P31391); experiment: Inhibition of human SST4 receptor at 3 uM by radioligand binding assay
Rattus norvegicus [14] = species: Rattus norvegicus; experiment: Inhibition of rat thyroid hormone receptor at 3 uM by radioligand binding assay
[15] = target: Muscarinic acetylcholine receptor M1 (Homo sapiens, UniProt P11229); experiment: Agonist activity at muscarinic M1 receptor (unknown origin) by calcium mobilization assay; format: functional
[16] = target: T1, Muscarinic acetylcholine receptor M2 (Homo sapiens) (UniProt P08172); experiment: Agonist activity at muscarinic M2 receptor (unknown origin) at 0.3 uM by calcium mobilization assay; format: functional
T1 sequence (whole entry): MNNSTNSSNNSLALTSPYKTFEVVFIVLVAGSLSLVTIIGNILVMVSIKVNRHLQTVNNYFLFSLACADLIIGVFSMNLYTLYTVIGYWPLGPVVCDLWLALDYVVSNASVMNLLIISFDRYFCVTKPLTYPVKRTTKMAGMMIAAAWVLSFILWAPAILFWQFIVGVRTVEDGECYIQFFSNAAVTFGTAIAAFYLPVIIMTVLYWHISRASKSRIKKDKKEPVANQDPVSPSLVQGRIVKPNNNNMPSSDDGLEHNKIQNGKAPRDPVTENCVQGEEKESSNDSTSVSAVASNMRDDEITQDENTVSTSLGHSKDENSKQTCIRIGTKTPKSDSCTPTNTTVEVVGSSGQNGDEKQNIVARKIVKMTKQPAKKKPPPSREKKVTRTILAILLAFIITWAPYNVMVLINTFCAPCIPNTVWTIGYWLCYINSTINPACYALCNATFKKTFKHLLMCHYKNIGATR

[17] = target: T2, Muscarinic acetylcholine receptor M4 (Homo sapiens) (UniProt P08173); experiment: Agonist activity at muscarinic M4 receptor (unknown origin) at 0.3 uM by calcium mobilization assay; format: functional
T2 sequence (whole entry): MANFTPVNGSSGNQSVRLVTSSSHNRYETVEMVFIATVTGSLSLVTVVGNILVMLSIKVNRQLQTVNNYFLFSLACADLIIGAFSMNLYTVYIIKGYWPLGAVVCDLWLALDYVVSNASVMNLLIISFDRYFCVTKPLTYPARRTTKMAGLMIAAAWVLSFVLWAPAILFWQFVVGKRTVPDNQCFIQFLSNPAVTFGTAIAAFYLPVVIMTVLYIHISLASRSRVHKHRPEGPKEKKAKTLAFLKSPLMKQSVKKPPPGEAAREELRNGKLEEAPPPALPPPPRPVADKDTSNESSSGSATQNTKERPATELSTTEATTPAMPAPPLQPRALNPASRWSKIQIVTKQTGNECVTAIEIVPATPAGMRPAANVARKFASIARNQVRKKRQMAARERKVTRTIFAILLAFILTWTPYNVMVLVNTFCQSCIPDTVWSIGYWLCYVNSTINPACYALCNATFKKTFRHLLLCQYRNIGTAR

[18] = Oral bioavailability in rat at 2.5 mg/kg; format: ADME, organism-based; conditions: in vivo
[19] = Clearance in rat at 0.25 mg/kg, iv and 2.5 mg/kg, po; format: ADME, organism-based; conditions: in vivo

Sequence of Muscarinic acetylcholine receptor M1 (P11229 whole entry): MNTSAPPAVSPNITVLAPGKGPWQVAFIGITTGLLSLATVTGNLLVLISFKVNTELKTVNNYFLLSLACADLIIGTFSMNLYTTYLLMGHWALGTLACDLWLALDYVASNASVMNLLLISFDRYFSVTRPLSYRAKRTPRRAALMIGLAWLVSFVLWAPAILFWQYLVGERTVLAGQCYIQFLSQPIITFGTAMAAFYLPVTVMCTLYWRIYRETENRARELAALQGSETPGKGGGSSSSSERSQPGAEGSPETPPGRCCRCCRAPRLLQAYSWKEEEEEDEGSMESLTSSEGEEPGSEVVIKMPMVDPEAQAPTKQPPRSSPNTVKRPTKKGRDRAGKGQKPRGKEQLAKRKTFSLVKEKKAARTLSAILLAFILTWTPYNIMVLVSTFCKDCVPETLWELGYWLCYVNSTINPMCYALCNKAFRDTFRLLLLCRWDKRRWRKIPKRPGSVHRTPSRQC
Sequence of Beta-2 adrenergic receptor (Homo sapiens) (P07550 whole entry, looked up): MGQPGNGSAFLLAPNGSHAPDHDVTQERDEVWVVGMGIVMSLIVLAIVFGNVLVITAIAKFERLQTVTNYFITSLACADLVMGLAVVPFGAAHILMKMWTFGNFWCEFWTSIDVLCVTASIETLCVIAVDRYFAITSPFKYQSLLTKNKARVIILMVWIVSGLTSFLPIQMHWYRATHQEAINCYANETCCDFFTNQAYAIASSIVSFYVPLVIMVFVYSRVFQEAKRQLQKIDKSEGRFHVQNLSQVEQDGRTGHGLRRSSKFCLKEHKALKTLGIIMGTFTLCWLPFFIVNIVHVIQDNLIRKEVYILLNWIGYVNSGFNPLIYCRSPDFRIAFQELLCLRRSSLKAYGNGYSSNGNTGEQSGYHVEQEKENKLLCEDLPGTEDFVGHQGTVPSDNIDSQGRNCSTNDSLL
Sequence of Neuronal acetylcholine receptor subunit alpha-7 (Rattus norvegicus) (Q05941 whole entry): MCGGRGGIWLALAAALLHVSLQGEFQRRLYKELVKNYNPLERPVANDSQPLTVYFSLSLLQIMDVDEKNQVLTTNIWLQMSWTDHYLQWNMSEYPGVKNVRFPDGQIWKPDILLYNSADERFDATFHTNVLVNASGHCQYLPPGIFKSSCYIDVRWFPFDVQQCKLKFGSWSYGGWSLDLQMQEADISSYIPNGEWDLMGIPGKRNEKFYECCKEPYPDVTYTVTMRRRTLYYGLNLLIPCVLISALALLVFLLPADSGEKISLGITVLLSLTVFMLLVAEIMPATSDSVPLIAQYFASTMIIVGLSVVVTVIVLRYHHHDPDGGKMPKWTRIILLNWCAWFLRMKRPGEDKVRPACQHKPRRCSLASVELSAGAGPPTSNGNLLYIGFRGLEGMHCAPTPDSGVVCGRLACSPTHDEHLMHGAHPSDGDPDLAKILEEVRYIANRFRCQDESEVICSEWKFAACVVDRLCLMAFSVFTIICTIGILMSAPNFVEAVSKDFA
Sequence of 5-hydroxytryptamine receptor 2B (Homo sapiens) (P41595 whole entry): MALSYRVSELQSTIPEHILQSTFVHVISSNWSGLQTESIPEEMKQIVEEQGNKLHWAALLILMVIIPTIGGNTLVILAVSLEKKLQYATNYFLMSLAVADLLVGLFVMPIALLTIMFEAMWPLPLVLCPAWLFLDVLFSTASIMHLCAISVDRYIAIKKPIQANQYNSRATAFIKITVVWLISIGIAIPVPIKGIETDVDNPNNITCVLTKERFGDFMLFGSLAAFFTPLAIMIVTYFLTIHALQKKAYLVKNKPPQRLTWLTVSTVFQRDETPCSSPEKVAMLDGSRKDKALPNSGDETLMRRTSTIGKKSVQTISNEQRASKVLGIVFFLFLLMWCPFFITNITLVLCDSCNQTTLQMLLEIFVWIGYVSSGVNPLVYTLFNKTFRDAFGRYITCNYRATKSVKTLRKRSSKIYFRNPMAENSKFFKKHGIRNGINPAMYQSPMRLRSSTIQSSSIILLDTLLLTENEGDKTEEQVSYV
Sequence of Neuropeptide Y receptor type 1 (Homo sapiens) (P25929 whole entry): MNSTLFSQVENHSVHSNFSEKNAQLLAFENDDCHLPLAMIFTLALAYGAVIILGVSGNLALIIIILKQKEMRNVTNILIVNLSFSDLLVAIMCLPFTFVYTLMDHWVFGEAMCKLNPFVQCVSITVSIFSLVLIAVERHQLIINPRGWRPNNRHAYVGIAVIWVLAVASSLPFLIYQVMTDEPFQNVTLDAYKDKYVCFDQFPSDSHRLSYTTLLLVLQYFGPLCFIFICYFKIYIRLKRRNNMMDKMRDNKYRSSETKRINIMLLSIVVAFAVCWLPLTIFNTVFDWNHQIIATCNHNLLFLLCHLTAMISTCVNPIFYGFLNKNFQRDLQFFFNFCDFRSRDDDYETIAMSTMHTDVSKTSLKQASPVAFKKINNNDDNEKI
Sequence of Sigma non-opioid intracellular receptor 1 (Homo sapiens) (Q99720 whole entry): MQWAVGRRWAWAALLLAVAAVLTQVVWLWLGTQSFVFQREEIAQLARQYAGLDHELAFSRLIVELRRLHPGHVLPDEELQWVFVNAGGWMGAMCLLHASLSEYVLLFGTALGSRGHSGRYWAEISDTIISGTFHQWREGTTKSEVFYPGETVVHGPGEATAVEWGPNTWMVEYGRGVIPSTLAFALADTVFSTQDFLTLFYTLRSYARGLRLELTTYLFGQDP
Sequence of Somatostatin receptor type 4 (Homo sapiens) (P31391 whole entry): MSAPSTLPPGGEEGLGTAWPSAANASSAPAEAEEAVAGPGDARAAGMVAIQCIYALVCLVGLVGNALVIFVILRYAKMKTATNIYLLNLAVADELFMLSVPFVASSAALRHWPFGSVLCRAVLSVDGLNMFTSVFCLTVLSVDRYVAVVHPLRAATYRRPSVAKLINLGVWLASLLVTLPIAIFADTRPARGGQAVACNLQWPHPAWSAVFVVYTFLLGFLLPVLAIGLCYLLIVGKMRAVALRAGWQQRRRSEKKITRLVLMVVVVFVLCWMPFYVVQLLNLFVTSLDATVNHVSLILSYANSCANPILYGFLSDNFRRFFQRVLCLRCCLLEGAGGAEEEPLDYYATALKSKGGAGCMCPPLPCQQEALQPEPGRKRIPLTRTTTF
Sequence of Adenosine receptor A3 (Homo sapiens) (P0DMS8 whole entry): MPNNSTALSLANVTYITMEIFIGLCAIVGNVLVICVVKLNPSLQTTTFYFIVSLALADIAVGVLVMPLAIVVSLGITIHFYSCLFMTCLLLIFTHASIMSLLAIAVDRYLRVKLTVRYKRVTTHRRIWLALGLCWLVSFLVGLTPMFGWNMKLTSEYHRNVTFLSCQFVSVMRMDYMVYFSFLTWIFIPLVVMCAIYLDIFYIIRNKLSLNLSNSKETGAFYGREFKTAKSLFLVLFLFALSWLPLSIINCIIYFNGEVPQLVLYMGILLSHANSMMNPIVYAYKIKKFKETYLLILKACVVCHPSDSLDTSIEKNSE
Sequence of Adenosine receptor A1 (Homo sapiens) (P30542 whole entry): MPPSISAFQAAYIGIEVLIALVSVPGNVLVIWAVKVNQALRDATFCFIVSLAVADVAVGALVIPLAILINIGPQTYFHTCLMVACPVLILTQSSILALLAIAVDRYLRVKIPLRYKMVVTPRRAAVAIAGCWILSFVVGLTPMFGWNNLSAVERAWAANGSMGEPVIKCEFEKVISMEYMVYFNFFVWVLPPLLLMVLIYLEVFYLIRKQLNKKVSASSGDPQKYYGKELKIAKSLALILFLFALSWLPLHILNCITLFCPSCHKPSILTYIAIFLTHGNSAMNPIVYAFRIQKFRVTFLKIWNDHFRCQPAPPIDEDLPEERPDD
Sequence of Alpha-2A adrenergic receptor (Homo sapiens) (P08913 whole entry): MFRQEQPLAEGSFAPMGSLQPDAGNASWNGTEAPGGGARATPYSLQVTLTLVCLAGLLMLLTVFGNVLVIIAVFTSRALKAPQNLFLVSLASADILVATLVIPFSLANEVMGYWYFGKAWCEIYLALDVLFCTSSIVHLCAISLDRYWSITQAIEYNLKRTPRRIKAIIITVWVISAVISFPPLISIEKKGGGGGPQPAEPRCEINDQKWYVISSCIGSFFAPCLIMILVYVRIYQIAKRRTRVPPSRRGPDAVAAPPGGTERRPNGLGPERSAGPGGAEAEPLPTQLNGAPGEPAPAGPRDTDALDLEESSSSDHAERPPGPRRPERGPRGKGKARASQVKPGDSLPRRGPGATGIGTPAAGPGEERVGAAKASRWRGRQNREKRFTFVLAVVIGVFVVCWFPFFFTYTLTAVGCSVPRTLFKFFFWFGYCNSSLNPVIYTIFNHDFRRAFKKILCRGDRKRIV
Sequence of Endothelin-1 receptor (Homo sapiens) (P25101 whole entry): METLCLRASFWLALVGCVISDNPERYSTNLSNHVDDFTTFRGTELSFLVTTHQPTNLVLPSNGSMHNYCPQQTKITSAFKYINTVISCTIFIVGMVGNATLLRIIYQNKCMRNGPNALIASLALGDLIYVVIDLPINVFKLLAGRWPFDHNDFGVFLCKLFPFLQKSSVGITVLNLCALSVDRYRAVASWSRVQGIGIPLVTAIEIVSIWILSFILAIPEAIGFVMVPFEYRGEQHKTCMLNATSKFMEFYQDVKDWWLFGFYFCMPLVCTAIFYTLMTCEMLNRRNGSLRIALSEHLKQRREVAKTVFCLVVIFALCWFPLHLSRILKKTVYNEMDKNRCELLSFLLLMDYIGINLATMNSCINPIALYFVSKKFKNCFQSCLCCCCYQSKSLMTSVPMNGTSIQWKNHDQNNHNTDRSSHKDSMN

`CCOC(=O)N1CCC(CN2CCC3(CC2)CN(C(=O)N(C)C)c2ncccc23)CC1.O=C(O)/C=C/C(=O)O` gave an inhibition [1] of -5%, an inhibition [2] of 15% and an inhibition [3] of -8%. For the same compound, the inhibition [4] was 21%, the inhibition [5] was -7% and the inhibition [6] was -1%. The inhibition [7] was 10%, the inhibition [8] was -2% and the inhibition (Rattus norvegicus [9]) was 7%. It also gave an inhibition [10] of 13%, an inhibition (Oryctolagus cuniculus) of 3% and an inhibition [11] of 11%. For the same compound, the inhibition [12] was 57%, the inhibition [13] was -10% and the inhibition (Rattus norvegicus [14]) was 4%. For the same compound, the EC50 [15] was 133 nM, the Activity [16] was 10% and the Activity [17] was 118%. It also gave a bioavailability [18] of 51.1% and a clearance [19] of 28.4 mL/min/kg.
